Data reported in US6204293A, “Inhibitors of protein isoprenyl transferases” (University of Pittsburgh, priority 1998, dated 2001).
Counter-ions that a name gives are not always drawn.

molecular target: T1, Rat brain protein farnesyltransferase (Rattus norvegicus, UniProt Q02293+Q04631); test: % inhibition of farnesylation, scintillation proximity assay with biotin-K Ras B fragment; type: biochemical; conditions: Table 1; 1 × 10^-5 M
T1 construct: Rat brain protein farnesyltransferase activity is measured; from tissue; host or cells: rat brain
T1 sequence (Q02293 whole entry, the tested form may be a part, one chain of several): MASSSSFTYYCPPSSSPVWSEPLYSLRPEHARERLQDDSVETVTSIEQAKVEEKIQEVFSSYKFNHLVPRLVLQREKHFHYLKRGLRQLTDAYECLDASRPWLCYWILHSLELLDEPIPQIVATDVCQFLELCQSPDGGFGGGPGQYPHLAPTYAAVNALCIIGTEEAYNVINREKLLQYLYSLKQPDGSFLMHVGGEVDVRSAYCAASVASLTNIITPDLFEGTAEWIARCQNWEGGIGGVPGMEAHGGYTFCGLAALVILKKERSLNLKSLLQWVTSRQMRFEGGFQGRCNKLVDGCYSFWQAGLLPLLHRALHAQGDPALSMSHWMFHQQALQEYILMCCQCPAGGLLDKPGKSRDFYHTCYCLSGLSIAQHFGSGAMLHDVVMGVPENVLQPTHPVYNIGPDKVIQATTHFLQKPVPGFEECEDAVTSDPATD
Method in brief: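 Scintillation proximity read-out of farnesylation, using a biotinylated K Ras B fragment (0.1 mM final) in place of biotin-lamin. Enzyme purified from rat brain; results given as % inhibition.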

Point of comparison: `CSCC[C@H](NC(=O)c1ccc(CNc2ccc(C)c(C)c2)cc1-c1ccccc1)C(=O)O` [Example 704], “% inhibition at 1 × 10^-5 M” value 67%. Against it:
- CSCC[C@H](NC(=O)c1ccc(CNCCCCc2ccccc2)cc1-c1ccccc1)C(=O)O [Example 718] — lower, 40%
- CSCC[C@H](NC(=O)c1ccc(CNCCN2CCCCC2)cc1-c1ccccc1)C(=O)O [Example 366] — higher, 83%

same assay, conditions: Table 2; 1 × 10^-6 M

Point of comparison: `COc1ccc(CNCc2ccc(C(=O)N[C@@H](CCSC)C(=O)O)c(-c3ccccc3)c2)c(OC)c1` [Example 655], “% inhibition at 1 × 10^-6 M” value 35%. Against it:
- CSCC[C@H](NC(=O)c1ccc(CN(C)CCc2ccccc2)cc1-c1ccccc1C)C(=O)O [Example 516] — higher, 95%
- CSCC[C@H](NC(=O)c1ccc(CN(Cc2ccco2)C(C)C)cc1-c1ccccc1C)C(=O)O [Example 831] — higher, 92%
- CSCC[C@H](NC(=O)c1ccc(-c2ccccc2-c2ccccc2)cc1-c1ccccc1C)C(=O)[O-].[Li+] [Example 786] — lower, 34%
- CSCC[C@H](NC(=O)c1ccc(CNc2cccc(I)c2)cc1-c1ccccc1)C(=O)O [Example 677] — higher, 37%
- CSCC[C@H](NC(=O)c1ccc(S(=O)(=O)NCCCn2ccnc2)cc1-c1ccccc1C)C(=O)O [Example 777] — higher, 83%
- CSCC[C@H](NC(=O)c1ccc(CCc2cccc3ccccc23)cc1-c1ccccc1C)C(=O)[O-].[Li+] [Example 467] — higher, 97%
- COc1ccc(CCNS(=O)(=O)c2ccc(C(=O)N[C@@H](CCSC)C(=O)O)c(-c3ccccc3C)c2)cc1OC [Example 776] — higher, 36%
- CSCC[C@H](NC(=O)c1ccc(CN(Cc2ccccc2)Cc2ccco2)cc1-c1ccccc1C)C(=O)O [Example 504] — higher, 90%
- CSCC[C@H](NC(=O)c1ccc(NC(=O)Cc2nccs2)cc1-c1ccccc1)C(=O)O [Example 163] — lower, 18%
- CSCC[C@H](NC(=O)c1ccc(CN(CCc2ccccc2)Cc2ccccc2)cc1-c1ccccc1C)C(=O)O [Example 513] — higher, 96%
- CSCC[C@H](NC(=O)c1ccc(CNc2ccc(-c3nc4ccccc4s3)cc2)cc1-c1ccccc1)C(=O)O [Example 703] — higher, 40%
- CSCC[C@H](NC(=O)c1ccc(CN(CCC#N)Cc2ccccc2)cc1-c1ccccc1)C(=O)O [Example 649] — higher, 86%
- CSCC[C@H](NC(=O)c1ccc(NC(=O)OCc2cncs2)cc1-c1ccccc1C)C(=O)O [Example 902] — higher, 85%
- CSCC[C@H](NC(=O)c1ccc(/C=C/c2ccc(Oc3ccccc3)nn2)cc1-c1ccccc1C)C(=O)O [Example 810] — higher, 89%
- Cc1ccccc1-c1cc(CNC(C)(C)Cc2ccccc2)ccc1C(=O)N[C@@H](CCS(C)(=O)=O)C(=O)O [Example 311] — higher, 97%
- CSCC[C@H](NC(=O)c1ccc(CNc2ccc(N3CCCCC3)cc2)cc1-c1ccccc1)C(=O)O [Example 697] — higher, 39%

same assay, conditions: Table 3; 1 × 10^-7 M

Point of comparison: `CSCC[C@H](NC(=O)c1ccc(/C=C/c2ccc(Oc3ccccc3[N+](=O)[O-])cc2)cc1-c1ccccc1C)C(=O)O` [Example 856], “% inhibition at 1 × 10^-7 M” value 97%. Against it:
- CSCC[C@H](NC(=O)c1ccc(CCc2ccc(Oc3ccccc3)nn2)cc1-c1ccccc1C)C(=O)O [Example 811] — lower, 85%
- CSCC[C@H](NC(=O)c1ccc(CCc2ccc(Oc3ccccc3)cc2)cc1-c1ccccc1C)C(=O)[O-].[Li+] [Example 462] — lower, 91%

same assay, conditions: Table 4; 1 × 10^-8 M

For `CSCC[C@H](NC(=O)c1ccc(CN(Cc2ccc3c(c2)OCO3)c2cncnc2)cc1-c1ccccc1C)C(=O)O` [Example 837], the “% inhibition at 1 × 10^-8 M” value was 91%.

same assay, conditions: Table 6; ** footnote 0.01 μM (title: 0.01 mM)

`COCCN(CCC1CCCCC1)Cc1ccc(C(=O)N[C@@H](CCSC)C(=O)O)c(-c2ccccc2C)c1` [Example 1104] was tested, and the “% inhibition at 0.01 μM (**)” value was 89%.

same assay, conditions: read-out: % inhibition at 0.01 μM (**); Table 6; ** footnote 0.01 μM (title: 0.01 mM)

With `CSCC[C@H](NC(=O)c1ccc(CO[C@H](CO)CC2CCCCC2)cc1-c1ccccc1C)C(=O)O` [Example 1049, N-[4-(3-cyclohexyl-1-hydroxyprop-2-yloxymethyl)-2-(2-methylphenyl)benzoyl]methionine, lithium salt] the inhibition at 0.01 µM was 93%.

same assay, conditions: read-out: % inhibition at 0.1 μM (*)

With `CSCC[C@H](NC(=O)c1ccc(COC(CCC2CCCCC2)c2cccc(Cl)c2)cc1-c1ccccc1C)C(=O)O` (some centres unmarked) [Example 1207, N-[4-(1-(3-chlorophenyl)-3-cyclohexylpropan-1-yloxymethyl)-2-(2-methylphenyl)benzoyl]methionine lithium salt] the inhibition at 0.1 µM was 91%.

same assay, conditions: read-out: % inhibition at 0.1 μM (*); Table 6; * footnote 0.1 μM (title: 0.1 mM)

Point of comparison: `CSCC[C@H](NC(=O)c1ccc(COCc2ccccc2CO)cc1-c1ccccc1C)C(=O)O` [Example 1043, N-[4-(2-hydroxymethylbenzyloxymethyl)-2-(2-methylphenyl)benzoyl]methionine,lithium salt], inhibition at 0.1 µM 90%. Against it:
- CSCC[C@H](NC(=O)c1ccc(COCCc2cccc(F)c2)cc1-c1ccccc1C)C(=O)O [Example 1274, N-[4-(2-(3-fluorophenyl)ethyloxymethyl-2-(2-methylphenyl)benzoyl]methioninelithium salt] — lower, 89%

same assay, conditions: read-out: % inhibition at 1 × 10^-6 M

In the case of `CSCC[C@H](NC(=O)c1ccc(COCc2ccc(-c3ccc(F)cc3)o2)cc1-c1cccc2ccccc12)C(=O)O` [Example 868, N-[4-(5-(4-fluorophenyl)furan-2-ylmethoxymethyl)-2-naphth-1-ylbenzoyl]methionine lithium salt], the inhibition at 1 µM is reported as 89%.

same assay, conditions: read-out: % inhibition at 1 × 10^-6 M; Table 2; 1 × 10^-6 M

Point of comparison: `CSCC[C@H](NC(=O)c1ccc(OCCC23CC4CC(CC(C4)C2)C3)cc1-c1ccccc1C)C(=O)O` [Example 553, N-[4-(2-adamantan-1-ylethoxy)-2-(2-methylphenyl)benzoyl]methionine], inhibition at 1 µM 92%. Against it:
- CSCC[C@H](NC(=O)c1ccc(SCCc2ccccc2)cc1-c1ccccc1C)C(=O)O [Example 498, N-[4-(2-phenylethylthio)-2-(2-methylphenyl)benzoyl]methionine] — higher, 98%
- COc1ccc(CCOCc2ccc(C(=O)N[C@@H](CCSC)C(=O)O)c(-c3ccccc3C)c2)cc1 [Example 937, N-[4-(2-(4-methoxyphenyl)ethoxymethyl)-2-(2-methylphenylbenzoyl]methioninelithium salt] — higher, 95%
- CSCC[C@H](NC(=O)c1cc(Cc2ccccc2)c(COCc2ccccc2)cc1-c1ccccc1C)C(=O)O [Example 923, N-[5-Benzyl-4-benzyloxymethyl-2-(2-methylphenyl)benzoyl]methionine] — lower, 78%

same assay, conditions: read-out: % inhibition at 1 × 10^-7 M

`CSCC[C@H](NC(=O)c1ccc(COCc2ccc(-c3ccc(C(C)=O)cc3)o2)cc1-c1ccccc1C)C(=O)O` [Example 449, N-[4-(5-(4-acetylphenyl)furan-2-ylmethoxymethyl)-2-(2-methylphenyl)benzoyl]methionine lithium salt] showed an inhibition at 0.1 µM of 91%.

same assay, conditions: read-out: % inhibition at 1 × 10^-7 M; Table 3; 1 × 10^-7 M

Point of comparison: `CSCC[C@H](NC(=O)c1ccc(COCc2ccc(-c3ccc(Cl)cc3)o2)cc1-c1ccccc1C)C(=O)NS(C)(=O)=O` [Example 818, N-[4-(5-(4-chlorophenyl)furan-2-ylmethoxymethyl)-2-(2-methylphenyl)benzoyl]methionine methanesulfonimide], inhibition at 0.1 µM 78%. Against it:
- CSCC[C@H](NC(=O)c1ccc(CSc2nnc[nH]2)cc1-c1ccccc1C)C(=O)O [Example 735] — higher, 96%
- CSCC[C@H](NC(=O)c1ccc(CSc2nnc(N)s2)cc1-c1ccccc1C)C(=O)O [Example 734] — lower, 49%
- CSCC[C@H](NC(=O)c1ccc(CSc2nc3ccccc3[nH]2)cc1-c1ccccc1C)C(=O)O [Example 732] — higher, 84%

same assay, conditions: read-out: % inhibition at 1 × 10^-8 M

Point of comparison: `CCCCC(CCCC)OCc1ccc(C(=O)N[C@@H](CCSC)C(=O)O)c(-c2ccccc2C)c1` [Example 942, N-[4-(nonan-5-yloxymethyl)-2-(2-methylphenyl)benzoyl]methionine lithium salt], inhibition at 0.01 µM 58%. Against it:
- CSCC[C@H](NC(=O)c1ccc(COCc2ccccc2Cl)cc1-c1ccccc1C)C(=O)O [Example 930, N-[4-(2-chlorobenzyloxymethyl)-2-(2-methylphenyl)benzoyl]methionine lithium salt] — higher, 66%
- CSCC[C@H](NC(=O)c1ccc(COCc2cccc(Cl)c2)cc1-c1ccccc1C)C(=O)O [Example 934, N-[4-(3-chlorobenzyloxymethyl)-2-(2-methylphenyl)benzoyl]methionine lithium salt] — higher, 71%
- CSCC[C@H](NC(=O)c1ccc(COCc2cnc(-c3ccccc3Cl)o2)cc1-c1ccccc1C)C(=O)O [Example 892, N-[4-(2-(2-chlorophenyl)oxazol-5-ylmethoxymethyl)-2-(2-methylphenyl)benzoyl]methionine lithium salt] — higher, 59%

same assay, conditions: read-out: % inhibition at 1 × 10^-8 M; Table 4; 1 × 10^-8 M

Work on `CSCC[C@H](NC(=O)c1ccc(CSCc2ccccc2)cc1-c1ccccc1C)C(=O)NS(=O)(=O)c1ccc(C)cc1` [Example 586, 4-methylbenzenesulfonyl N-2-[4-(benzylthiomethyl)-2-(2-methylphenyl)benzoyl]amino-4-methylthiobutanamide] yielded an inhibition at 0.01 µM of 90%.
